Source: patent publication US12624044B2, “SMARCA degraders and uses thereof” (Kymera Therapeutics, Inc., priority 2019, dated 2026)

Target: SMARCA2 (Homo sapiens, UniProt P51531)
Assay: MSD SMARCA2 degradation in NCI-H1299 cell line (24 h)
Assay type: cell-based
Set-up: HC: NCI-H1299 cells treated with DMSO; host or cells: NCI-H1299
Settings: for Dmax: NCI-H1299, NCI-H1299 cells; for DC50: NCI-H1299 cells, read-out: SMARCA2 MSD H1299 degradation 24 h: External Abs-DC50
Outline: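 NCI-H1299 cells treated 24 h with a 3-fold, 9-point compound dilution series, then lysed in RIPA with protease inhibitor. SMARCA2 in lysate-coated MSD plates detected with rabbit anti-SMARCA2 (0.3 ug/ml) and SULFO-TAG secondary. Relative SMARCA2 level normalized between DMSO-treated H1299 cells and SMARCA2-negative A2780 cells; Dmax % binned A–D.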

Chain of SMARCA2 (P51531 whole entry): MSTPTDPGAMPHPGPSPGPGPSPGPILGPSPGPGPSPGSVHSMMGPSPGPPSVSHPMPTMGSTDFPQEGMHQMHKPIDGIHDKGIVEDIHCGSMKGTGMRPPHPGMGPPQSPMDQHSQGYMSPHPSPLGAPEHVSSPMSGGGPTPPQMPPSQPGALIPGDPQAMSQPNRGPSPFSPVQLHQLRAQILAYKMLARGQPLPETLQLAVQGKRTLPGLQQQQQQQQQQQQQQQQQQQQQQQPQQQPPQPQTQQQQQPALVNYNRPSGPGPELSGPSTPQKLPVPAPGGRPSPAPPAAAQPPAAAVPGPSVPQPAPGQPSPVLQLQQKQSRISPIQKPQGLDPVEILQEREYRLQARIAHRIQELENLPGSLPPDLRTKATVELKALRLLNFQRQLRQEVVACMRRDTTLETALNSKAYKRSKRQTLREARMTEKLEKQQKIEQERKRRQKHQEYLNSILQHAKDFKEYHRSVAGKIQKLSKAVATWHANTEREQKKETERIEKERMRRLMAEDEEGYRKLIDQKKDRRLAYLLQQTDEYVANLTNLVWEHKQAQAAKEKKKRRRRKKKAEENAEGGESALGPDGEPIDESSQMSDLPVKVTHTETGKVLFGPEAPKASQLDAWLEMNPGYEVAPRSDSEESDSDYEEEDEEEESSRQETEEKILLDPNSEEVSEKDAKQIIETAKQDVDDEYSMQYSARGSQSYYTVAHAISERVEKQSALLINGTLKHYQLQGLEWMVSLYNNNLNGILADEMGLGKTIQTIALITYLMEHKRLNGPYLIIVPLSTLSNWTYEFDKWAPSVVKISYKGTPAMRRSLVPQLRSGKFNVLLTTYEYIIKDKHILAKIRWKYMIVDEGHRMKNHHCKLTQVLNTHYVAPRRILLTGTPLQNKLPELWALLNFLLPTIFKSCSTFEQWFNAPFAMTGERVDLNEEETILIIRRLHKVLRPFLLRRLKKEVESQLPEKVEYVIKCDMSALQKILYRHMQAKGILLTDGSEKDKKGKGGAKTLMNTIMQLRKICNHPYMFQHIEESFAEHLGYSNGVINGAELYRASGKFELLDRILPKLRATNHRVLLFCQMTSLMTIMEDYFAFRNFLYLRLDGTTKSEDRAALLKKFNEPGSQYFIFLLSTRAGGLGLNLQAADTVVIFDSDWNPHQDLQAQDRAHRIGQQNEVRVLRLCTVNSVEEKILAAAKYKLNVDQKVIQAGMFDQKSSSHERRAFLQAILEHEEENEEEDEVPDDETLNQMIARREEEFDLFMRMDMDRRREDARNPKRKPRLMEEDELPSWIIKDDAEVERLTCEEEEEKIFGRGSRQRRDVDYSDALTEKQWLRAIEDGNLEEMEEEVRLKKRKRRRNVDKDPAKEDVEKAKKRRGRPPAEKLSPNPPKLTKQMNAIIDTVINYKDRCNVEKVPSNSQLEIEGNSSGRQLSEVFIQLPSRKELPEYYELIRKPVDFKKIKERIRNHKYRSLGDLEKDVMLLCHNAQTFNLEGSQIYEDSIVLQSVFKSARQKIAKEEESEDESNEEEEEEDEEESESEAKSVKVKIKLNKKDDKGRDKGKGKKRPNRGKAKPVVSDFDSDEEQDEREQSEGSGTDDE

SMILES	Dmax [%]	DC50 [nM]
Cn1c(=O)n(C2CCC(=O)NC2=O)c2cccc(CCCCCCCCCN3CCC(Cn4cc(-c5cc(-c6ccccc6O)nnc5N)cn4)CC3)c21 (centres unmarked) [I-151]	> 90	100 to 500
Cn1c(=O)n(C2CCC(=O)NC2=O)c2ccc(CCCCCCCCc3cccc(CN4CCN(c5cc(-c6ccccc6O)nnc5N)CC4)c3)cc21 (centres unmarked) [I-152, 3-(5-(8-(3-((4-(3-amino-6-(2-hydroxyphenyl)pyridazin-4-yl)piperazin-1-yl)methyl)phenyl)octyl)-3-methyl-2-oxo-2,3-dihydro-1H-benzo[d]imidazol-1-yl) piperidine-2,6-dione]	< 50	> 1000
Cn1c(=O)n(C2CCC(=O)NC2=O)c2ccc(CCCOCCCN3CCN(Cc4ccc(-c5cc(-c6ccccc6O)nnc5N)cc4)CC3)cc21 (centres unmarked) [I-153]	50 to 70	< 100
Cn1c(=O)n(C2CCC(=O)NC2=O)c2ccc(CCCCN3CCN(Cc4ccc(-c5cc(-c6ccccc6O)nnc5N)cc4)CC3)cc21 (centres unmarked) [I-154]	< 50	> 1000
Cn1c(=O)n(C2CCC(=O)NC2=O)c2cccc(CCCOCCCCN3CCN(Cc4ccc(-c5cc(-c6ccccc6O)nnc5N)cc4)CC3)c21 (centres unmarked) [I-155]	50 to 70	100 to 500
Cn1c(=O)n(C2CCC(=O)NC2=O)c2ccc(CN3CC(OCCCN4CCN(Cc5ccc(-c6cc(-c7ccccc7O)nnc6N)cc5)CC4)C3)cc21 (centres unmarked) [I-156]	50 to 70	> 1000
Cn1c(=O)n(C2CCC(=O)NC2=O)c2ccc(CN3CC[C@@H](OCCCN4CCN(Cc5ccc(-c6cc(-c7ccccc7O)nnc6N)cc5)CC4)C3)cc21 (some centres unmarked) [I-157]	70 to 90	100 to 500
Cn1c(=O)n(C2CCC(=O)NC2=O)c2ccc(CN3CCC(OCCCN4CCN(Cc5ccc(-c6cc(-c7ccccc7O)nnc6N)cc5)CC4)CC3)cc21 (centres unmarked) [I-158]	70 to 90	100 to 500
CN(CCCc1ccc2c(c1)n(C)c(=O)n2C1CCC(=O)NC1=O)Cc1ccc(N2CCN(c3cc(-c4ccccc4O)nnc3N)CC2)cc1 (centres unmarked) [I-159, 3-(5-(3-((4-(4-(3-amino-6-(2-hydroxyphenyl)pyridazin-4-yl)piperazin-1-yl)benzyl)(methyl)amino)propyl)-3-methyl-2-oxo-2,3-dihydro-1H-benzo[d]imidazol-1-yl)piperidine-2,6-dione]	< 50	> 1000
CN1C(=O)CCC(n2c(=O)n(C)c3cc(CCCOCCCCN4CCN(Cc5ccc(-c6cc(-c7ccccc7O)nnc6N)cc5)CC4)ccc32)C1=O (centres unmarked) [I-160]	< 50	> 1000
CN(CCCc1cnc(N2C3CCC2CN(c2cc(-c4ccccc4O)nnc2N)C3)nc1)CCCc1ccc2c(c1)n(C)c(=O)n2C1CCC(=O)NC1=O (centres unmarked) [I-161]	> 90	< 100
Cn1c(=O)n(C2CCC(=O)NC2=O)c2ccc(CN3CCN(Cc4cnc(N5C6CCC5CN(c5cc(-c7ccccc7O)nnc5N)C6)nc4)CC3)cc21 (centres unmarked) [I-163]	< 50	> 1000
CN(Cc1ccc2c(c1)n(C)c(=O)n2C1CCC(=O)NC1=O)C1CCN(Cc2cnc(N3C4CCC3CN(c3cc(-c5ccccc5O)nnc3N)C4)nc2)CC1 (centres unmarked) [I-164, 3-(5-(((1-((2-(3-(3-amino-6-(2-hydroxyphenyl)pyridazin-4-yl)-3,8-diazabicyclo[3.2.1]octan-8-yl)pyrimidin-5-yl)methyl)piperidin-4-yl)(methyl)amino)methyl)-3-methyl-2-oxo-2,3-dihydro-1H-benzo[d]imidazol-1-yl)piperidine-2,6-dione hydrogen chloride]	> 90	< 100
Cn1c(=O)n(C2CCC(=O)NC2=O)c2ccc(CCN3CCN(Cc4cnc(N5C6CCC5CN(c5cc(-c7ccccc7O)nnc5N)C6)nc4)CC3)cc21 (centres unmarked) [I-165]	> 90	< 100
Cn1c(=O)n(C2CCC(=O)NC2=O)c2ccc(CN3CC4(CCN(Cc5cnc(N6C7CCC6CN(c6cc(-c8ccccc8O)nnc6N)C7)nc5)CC4)C3)cc21 (centres unmarked) [I-166]	> 90	< 100
Cn1c(=O)n(C2CCC(=O)NC2=O)c2ccc(CCCN3CCC(c4cnc(N5C6CCC5CN(c5cc(-c7ccccc7O)nnc5N)C6)nc4)CC3)cc21 (centres unmarked) [I-167, 3-[5-[3-[4-[2-[3-[3-amino-6-(2-hydroxyphenyl)pyridazin-4-yl]-3,8-diazabicyclo[3.2.1]octan-8-yl]pyrimidin-5-yl]-1-piperidyl]propyl]-3-methyl-2-oxo-benzimidazol-1-yl]piperidine-2,6-dione]	> 90	< 100
Cn1c(=O)n(C2CCC(=O)NC2=O)c2cccc(CN3CCCC(n4cc(-c5cc(-c6ccccc6O)nnc5N)cn4)C3)c21 (centres unmarked) [I-168]	50 to 70	100 to 500
Cn1c(=O)n(C2CCC(=O)NC2=O)c2cccc(CCCN3CCCC(n4cc(-c5cc(-c6ccccc6O)nnc5N)cn4)C3)c21 (centres unmarked) [I-169, 3-(4-(3-(3-(4-(3-amino-6-(2-hydroxyphenyl)pyridazin-4-yl)-1H-pyrazol-1-yl)piperidin-1-yl)propyl)-3-methyl-2-oxo-2,3-dihydro-1H-benzo[d]imidazol-1-yl)piperidine-2,6-dione]	> 90	< 100
Cn1c(=O)n(C2CCC(=O)NC2=O)c2cccc(CCCCCN3CCCC(n4cc(-c5cc(-c6ccccc6O)nnc5N)cn4)C3)c21 (centres unmarked) [I-170]	70 to 90	< 100
Cn1c(=O)n(C2CCC(=O)NC2=O)c2cccc(CCCCCCCN3CCCC(n4cc(-c5cc(-c6ccccc6O)nnc5N)cn4)C3)c21 (centres unmarked) [I-171]	50 to 70	> 1000

SMILES	Dmax [%]	DC50 [nM]
Cn1c(=O)n(C2CCC(=O)NC2=O)c2cccc(CN3CCC(n4cc(-c5cc(-c6ccccc6O)nnc5N)cn4)CC3)c21 (centres unmarked) [I-173]	< 50	> 1000
Cn1c(=O)n(C2CCC(=O)NC2=O)c2cccc(CCCN3CCC(n4cc(-c5cc(-c6ccccc6O)nnc5N)cn4)CC3)c21 (centres unmarked) [I-174, 3-[4-[3-[4-[4-[3-amino-6-(2-hydroxyphenyl)pyridazin-4-yl]pyrazol-1-yl]-1-piperidyl]propyl]-3-methyl-2-oxo-benzimidazol-1-yl]piperidine-2,6-dione]	> 90	< 100
Cn1c(=O)n(C2CCC(=O)NC2=O)c2cccc(CCCCCN3CCC(n4cc(-c5cc(-c6ccccc6O)nnc5N)cn4)CC3)c21 (centres unmarked) [I-175]	> 90	< 100
Cn1c(=O)n(C2CCC(=O)NC2=O)c2cccc(CCCCCCCN3CCC(n4cc(-c5cc(-c6ccccc6O)nnc5N)cn4)CC3)c21 (centres unmarked) [I-176]	70 to 90	< 100
Cn1c(=O)n(C2CCC(=O)NC2=O)c2ccc(CN3CCCC(n4cc(-c5cc(-c6ccccc6O)nnc5N)cn4)C3)cc21 (centres unmarked) [I-177]	70 to 90	< 100
Cn1c(=O)n(C2CCC(=O)NC2=O)c2ccc(CCCN3CCCC(n4cc(-c5cc(-c6ccccc6O)nnc5N)cn4)C3)cc21 (centres unmarked) [I-178]	70 to 90	< 100
Cn1c(=O)n(C2CCC(=O)NC2=O)c2ccc(CCCCCN3CCCC(n4cc(-c5cc(-c6ccccc6O)nnc5N)cn4)C3)cc21 (centres unmarked) [I-179]	50 to 70	100 to 500
Cn1c(=O)n(C2CCC(=O)NC2=O)c2ccc(CCCCCCCN3CCCC(n4cc(-c5cc(-c6ccccc6O)nnc5N)cn4)C3)cc21 (centres unmarked) [I-180]	< 50	> 1000
Cn1c(=O)n(C2CCC(=O)NC2=O)c2ccc(CN3CCC(n4cc(-c5cc(-c6ccccc6O)nnc5N)cn4)CC3)cc21 (centres unmarked) [I-181]	< 50	> 1000
Cn1c(=O)n(C2CCC(=O)NC2=O)c2ccc(CCCN3CCC(n4cc(-c5cc(-c6ccccc6O)nnc5N)cn4)CC3)cc21 (centres unmarked) [I-182]	50 to 70	100 to 500
Cn1c(=O)n(C2CCC(=O)NC2=O)c2ccc(CCCCCN3CCC(n4cc(-c5cc(-c6ccccc6O)nnc5N)cn4)CC3)cc21 (centres unmarked) [I-183]	70 to 90	< 100
Cn1c(=O)n(C2CCC(=O)NC2=O)c2ccc(CCCCCCCN3CCC(n4cc(-c5cc(-c6ccccc6O)nnc5N)cn4)CC3)cc21 (centres unmarked) [I-184]	< 50	> 1000
Cn1c(=O)n(C2CCC(=O)NC2=O)c2cccc(CCCCCCCCN3CCN(c4cc(-c5ccccc5O)nnc4N)CC3)c21 (centres unmarked) [I-185]	< 50	> 1000
Cn1c(=O)n(C2CCC(=O)NC2=O)c2ccc(CCc3cnc(N4C5CCC4CN(c4cc(-c6ccccc6O)nnc4N)C5)nc3)cc21 (centres unmarked) [I-186, 3-[5-[2-[2-[3-[3-amino-6-(2-hydroxyphenyl)pyridazin-4-yl]-3,8-diazabicyclo[3.2.1]octan-8-yl]pyrimidin-5-yl]ethyl]-3-methyl-2-oxo-benzimidazol-1-yl]piperidine-2,6-dione]	50 to 70	100 to 500
CN1C(=O)CCC(n2c(=O)n(C)c3cc(CCCCCCCc4cnc(N5C6CCC5CN(c5cc(-c7ccccc7O)nnc5N)C6)nc4)ccc32)C1=O (centres unmarked) [I-187]	< 50	> 1000
Cn1c(=O)n(C2CCC(=O)NC2=O)c2cccc(CCCN3CCC[C@@H](Cn4cc(-c5cc(-c6ccccc6O)nnc5N)cn4)C3)c21 (some centres unmarked) [I-188]	70 to 90	100 to 500
Cn1c(=O)n(C2CCC(=O)NC2=O)c2cccc(CCCCN3CCC[C@@H](Cn4cc(-c5cc(-c6ccccc6O)nnc5N)cn4)C3)c21 (some centres unmarked) [I-189]	> 90	< 100
Cn1c(=O)n(C2CCC(=O)NC2=O)c2cccc(CCCCCN3CCC[C@@H](Cn4cc(-c5cc(-c6ccccc6O)nnc5N)cn4)C3)c21 (some centres unmarked) [I-190]	70 to 90	100 to 500
Cn1c(=O)n(C2CCC(=O)NC2=O)c2ccc(CCCN3CCC[C@@H](Cn4cc(-c5cc(-c6ccccc6O)nnc5N)cn4)C3)cc21 (some centres unmarked) [I-191]	50 to 70	100 to 500
Cn1c(=O)n(C2CCC(=O)NC2=O)c2ccc(CCCCN3CCC[C@@H](Cn4cc(-c5cc(-c6ccccc6O)nnc5N)cn4)C3)cc21 (some centres unmarked) [I-192]	50 to 70	100 to 500
